{"source": "the METLIN SMRT retention time set (Domingo-Almenara et al. 2019)"}
{"assay": "gradient 5% acetonitrile 3 min, to 50% in 2 min, to 85% in 15 min, held 3 min, 100 µL/min", "conditions": "column: Zorbax Extend-C18 2.1 x 50 mm; eluents: water / acetonitrile, 0.1% formic acid", "how_it_was_run": "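Retention times of pure standards were taken from adduct peaks that were selected by computer and manually inspected. Over 3 months, mixtures of ~100 molecules were run by HPLC–quadrupole time-of-flight mass spectrometry in positive and negative ionization mode. The Zorbax Extend-C18 column (2.1 × 50 mm, 1.8 μm) ran at 100 μL/min in water and acetonitrile, each containing 0.1% formic acid, with 40 μL dead volume and 900 μL dwell volume.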", "units": {"RP-LC retention time": "s"}}
{"smiles": "COc1ccccc1-c1nc2nccc(-c3ccco3)n2n1", "RP-LC retention time": 836}
{"smiles": "CCc1nc2cc3c(cc2n1CC(=O)Nc1ccccc1OC)OCCO3", "RP-LC retention time": 627}
{"smiles": "COC(=O)c1c(C)[nH]c(C(=O)N2CCCC(C(=O)NC3CCCCCC3)C2)c1C", "note": "(stereo not given)", "RP-LC retention time": 794}
{"smiles": "CC(C)CN(CC(C)C)C(=O)C1CCN(S(=O)(=O)c2cccc3nsnc23)CC1", "RP-LC retention time": 1040}
{"smiles": "Fc1ccc(OCc2nnc3sc(-c4cccc(F)c4)nn23)cc1", "RP-LC retention time": 947}
{"smiles": "COc1ccc(CN(C)Cc2cc(=O)n3cc(Cl)ccc3n2)cc1", "RP-LC retention time": 624}
{"smiles": "CCc1nnc(NC(=O)C2CCCN(c3ncnc4c3nc3n4CCCCC3)C2)s1", "note": "(stereo not given)", "RP-LC retention time": 724}
{"smiles": "CC(C)CC(=O)N1CCN(c2nc3ccccc3n(CC(C)C)c2=O)CC1", "RP-LC retention time": 1080}
{"smiles": "COc1ccc(S(=O)(=O)N2CCN(c3cc(C)nc(Nc4ccc(C)cc4)n3)CC2)cc1Cl", "RP-LC retention time": 801}
{"smiles": "CCc1nc2cc(-c3noc(-c4ccc(C)c(F)c4)n3)ccc2o1", "RP-LC retention time": 1350}
{"smiles": "Cc1ccccc1NC(=O)N1CCCC1c1cc(C(C)C)on1", "note": "(stereo not given)", "RP-LC retention time": 890}
{"smiles": "CSc1ncccc1C(=O)NCc1cc(-c2ccc3c(c2)OCCO3)on1", "RP-LC retention time": 748}
{"smiles": "COc1cc2c(=O)c(C(=O)c3ccncc3)cn(CC(=O)Nc3ccc(F)cc3F)c2cc1Cl", "RP-LC retention time": 711}
{"smiles": "Cc1cc(-c2nnc(-c3ccc(F)cc3)o2)c(C)n1CC(=O)NCc1ccc(F)cc1", "RP-LC retention time": 945}
{"smiles": "CCCC[C@H]1C(=O)O[C@H](C)[C@H](NC(=O)c2cccc(NC=O)c2OC)C(=O)O[C@@H](C)[C@@H]1OC(=O)CC(C)C", "RP-LC retention time": 1190}
{"smiles": "O=C(Cc1ccccc1Br)NCC(=O)N1CCCc2ccccc21", "RP-LC retention time": 862}
{"smiles": "Cc1cc(C)cc(C(=O)N2CCC3(CC2)NC(=O)c2cc(Cl)ccc2N3C)c1", "RP-LC retention time": 850}
{"smiles": "CCc1nc(-c2csc(S(=O)(=O)N3CCCC(C(=O)Nc4c(C)cccc4C)C3)c2)no1", "note": "(stereo not given)", "RP-LC retention time": 1010}
{"smiles": "Cc1ccc(-c2cc(C(=O)NCCN3CCCC3)n(C)c2)cc1", "RP-LC retention time": 670}
{"smiles": "CC(C)N1C(=O)c2cccnc2Sc2cc(C(=O)N3CCCN(C)CC3)ccc21", "RP-LC retention time": 596}
{"smiles": "CCCCc1nc(N2CCN(C(=O)c3ccco3)CC2)c(C#N)c2c1COC(C)(C)C2", "RP-LC retention time": 1190}
{"smiles": "O=C(c1ccc(F)cc1)N1CCN(c2nnc3ccccn23)CC1", "RP-LC retention time": 613}
{"smiles": "COc1ccccc1NC(=O)CN1CCc2[nH]c3c(OC)ccc(Cl)c3c(=O)c2C1", "RP-LC retention time": 638}
{"smiles": "CSc1cccc(NC(=O)c2c[nH]c3ncccc23)c1", "RP-LC retention time": 752}
{"smiles": "COc1ccc(-c2nnc(-c3ccc(C)c(S(=O)(=O)NC4CCCC4)c3)o2)cc1OC", "RP-LC retention time": 1010}
{"smiles": "Cc1cc(N2CCN(S(=O)(=O)c3ccccc3Cl)CC2)nc(NC2CCCCC2)n1", "RP-LC retention time": 838}
{"smiles": "CCOC(=O)c1ccc2nc(NC(=O)C3CCCCN3S(C)(=O)=O)sc2c1", "note": "(stereo not given)", "RP-LC retention time": 839}
{"smiles": "Cc1ccccc1NC(=O)c1nnc(CSCC(=O)N2CCN(c3ccccn3)CC2)s1", "RP-LC retention time": 637}
{"smiles": "CCOCCCNC(=O)C1CCCN(c2cc(=O)n(C)c(=O)n2C)C1", "note": "(stereo not given)", "RP-LC retention time": 665}
{"smiles": "O=C(COc1ccc(F)cc1)Nc1ccc(-c2nc(-c3ccc(Cl)cc3)no2)cc1", "RP-LC retention time": 1340}
{"smiles": "CCCC(=O)c1cn(CC(=O)NCc2ccc3c(c2)OCCCO3)c2ccccc12", "RP-LC retention time": 876}
{"smiles": "O=C(Nc1ccccc1)c1cc(C2CC2)n2nccc2n1", "RP-LC retention time": 957}
{"smiles": "COc1cc(NC(=O)Cn2nc3nc(N4CCCC(C)C4)ccn3c2=O)cc(OC)c1", "note": "(stereo not given)", "RP-LC retention time": 770}
{"smiles": "COCC1CN(C2CCC2)CC12CCN(C(=O)c1ccsc1)CC2", "note": "(stereo not given)", "RP-LC retention time": 592}
{"smiles": "COc1ccc(NC(=O)Cc2nnc(-c3ccc4ncccc4c3)o2)cc1Cl", "RP-LC retention time": 728}
{"smiles": "Cc1cc(C)c(NC(=O)Cn2cnc3nc(N4CCCC(C(=O)NC5CC5)C4)sc3c2=O)c(C)c1", "note": "(stereo not given)", "RP-LC retention time": 723}
{"smiles": "Cc1nc(-c2csc(S(=O)(=O)N3CCCC(C(=O)Nc4ccc(C)c(C)c4)C3)c2)no1", "note": "(stereo not given)", "RP-LC retention time": 939}
{"smiles": "COc1cccc(NC(=O)C2CCN(S(=O)(=O)c3ccc4[nH]c(=O)sc4c3)CC2)c1", "RP-LC retention time": 783}
{"smiles": "CCn1nccc1C(=O)NCCn1c(=O)n(Cc2ccccc2)c2cccnc21", "RP-LC retention time": 740}
{"smiles": "Cc1nnc(NC(=O)c2cccc(C(F)(F)F)c2)s1", "RP-LC retention time": 749}
{"smiles": "Cc1ccc(Cl)cc1NC(=O)CN(C)S(=O)(=O)c1c[nH]c(C(=O)N2CCCC2)c1", "RP-LC retention time": 818}
{"smiles": "CCC(CC)C(=O)Nc1ccc2nc(N3CCN(CC)CC3)cc(C)c2c1", "RP-LC retention time": 593}
{"smiles": "COc1ccc(C)cc1NC(=O)c1cc(C)n2nc(C)cc2n1", "RP-LC retention time": 1040}
{"smiles": "O=C(NCc1ccncc1)c1cc2cc(Cl)ccc2[nH]1", "RP-LC retention time": 618}
{"smiles": "COc1ccccc1CNC(=O)Cn1nc2c(N3CCCCCC3)nccn2c1=O", "RP-LC retention time": 694}
{"smiles": "O=C(Nc1ccccc1)C(=O)Nc1ccccc1[N+](=O)[O-]", "RP-LC retention time": 917}
{"smiles": "CC(C)CN1CCN(C(=O)COc2ccc(NC(=O)C3CC3)cn2)CC1", "RP-LC retention time": 570}
{"smiles": "CC(C)NC(=O)Cn1cccc(-c2nc(-c3ccc(F)cc3)no2)c1=O", "RP-LC retention time": 735}
{"smiles": "Cc1ccc(N2CCN(c3nccn4nc(-c5ccc(Cl)cc5)cc34)CC2)cc1", "RP-LC retention time": 1400}
{"smiles": "Cc1ccc(-n2ccc(=O)c(-c3nc(-c4cccc(Br)c4)no3)n2)cc1", "RP-LC retention time": 1030}
{"smiles": "Cc1cc(N2CCN(S(=O)(=O)c3cc(F)ccc3F)CC2)nc(N2CCOCC2)n1", "RP-LC retention time": 660}
{"smiles": "Cc1cc(C)cc(C(=O)N2CCCC(C(=O)NC3CCCCCC3)C2)c1", "note": "(stereo not given)", "RP-LC retention time": 955}
{"smiles": "Cc1ccc(NC(=O)N2CCc3nc(-c4ccc(Cl)cc4)ncc3C2)cc1", "RP-LC retention time": 783}
{"smiles": "CCNC(=O)Nc1ccc(OCC(=O)NCc2cccc(OC)c2)nc1", "RP-LC retention time": 669}
{"smiles": "O=C(OCn1nnc2ccccc2c1=O)c1ccccc1[N+](=O)[O-]", "RP-LC retention time": 1030}
{"smiles": "COc1ccc(NC(=O)N2CCCC2c2nc(-c3ccccc3OC)no2)cc1Cl", "note": "(stereo not given)", "RP-LC retention time": 892}
{"smiles": "COc1ccc(-c2nnc(-c3ccccc3)o2)cc1S(=O)(=O)N1CCCCC1", "RP-LC retention time": 1020}
{"smiles": "COc1ccc(-c2nnc(SCc3ccc(Br)cc3)o2)cc1", "RP-LC retention time": 1170}
{"smiles": "O=C(c1ccccc1Sc1nccnc1Oc1ccccc1)N1CCN(c2ccccn2)CC1", "RP-LC retention time": 691}
{"smiles": "CCOc1ccccc1C(=O)NCC1CCN(C(=O)c2ccccc2F)CC1", "RP-LC retention time": 756}
{"smiles": "O=C1c2cccc3cccc(c23)C(=O)N1CCCC(=O)N1CCc2ccccc21", "RP-LC retention time": 908}
{"smiles": "COc1ccc(Cc2nc3ccc(C(=O)NCc4ccc(C)o4)cc3o2)cc1", "RP-LC retention time": 918}
{"smiles": "CCCc1noc(-c2cccnc2N2CCCN(Cc3ccc(F)cc3Cl)CC2)n1", "RP-LC retention time": 748}
{"smiles": "CCOc1ccc(C(=O)N2CCC3(CC2)C(=O)N(CC)c2ccccc23)cc1OCC", "RP-LC retention time": 939}
{"smiles": "COc1cccc(S(=O)(=O)N2CCCN(S(=O)(=O)c3ccccc3)CCC(=O)NCC2)c1", "RP-LC retention time": 805}
